PubChem BioAssay (NCI)
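Cells were grown in 96-well plates and exposed to each compound for 48 hours at five concentrations; endpoints were interpolated linearly between bracketing concentrations, or set to the highest concentration if not reached. TGI marks complete inhibition of growth.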

Columns and labels:
Experiment in all cases: NCI tumour cell line growth inhibition, 48 h
RXF 393 renal = system: RXF 393 renal
RPMI-8226 leukemia = system: RPMI-8226 leukemia
SNB-19 CNS = system: SNB-19 CNS
786-0 renal = system: 786-0 renal
NCI-H23 lung = system: NCI-H23 lung
PC-3 prostate = system: PC-3 prostate
HL-60(TB) leukemia = system: HL-60(TB) leukemia
OVCAR-3 ovarian = system: OVCAR-3 ovarian
SK-OV-3 ovarian = system: SK-OV-3 ovarian
M14 melanoma = system: M14 melanoma
EKVX NSCLC = system: EKVX NSCLC
HCT-116 colon = system: HCT-116 colon
TK-10 renal = system: TK-10 renal
MOLT-4 leukemia = system: MOLT-4 leukemia
MDA-MB-231 breast = system: MDA-MB-231 breast
SK-MEL-5 melanoma = system: SK-MEL-5 melanoma
NCI-H522 lung = system: NCI-H522 lung
SK-MEL-2 melanoma = system: SK-MEL-2 melanoma
SW-620 colon = system: SW-620 colon
MALME-3M melanoma = system: MALME-3M melanoma
A549 NSCLC = system: A549 NSCLC
SF-268 CNS = system: SF-268 CNS
UACC-257 melanoma = system: UACC-257 melanoma
SF-295 CNS = system: SF-295 CNS
UACC-62 melanoma = system: UACC-62 melanoma
DU-145 prostate = system: DU-145 prostate
HS 578T breast = system: HS 578T breast
IGROV1 ovarian = system: IGROV1 ovarian
K-562 leukemia = system: K-562 leukemia
MDA-MB-435 = system: MDA-MB-435
KM12 colon = system: KM12 colon
NCI/ADR-RES ovarian = system: NCI/ADR-RES ovarian
HCT-15 colon = system: HCT-15 colon
LOX IMVI melanoma = system: LOX IMVI melanoma
OVCAR-8 ovarian = system: OVCAR-8 ovarian
ACHN renal = system: ACHN renal
SK-MEL-28 melanoma = system: SK-MEL-28 melanoma
HOP-92 NSCLC = system: HOP-92 NSCLC
MCF7 breast = system: MCF7 breast
U251 CNS = system: U251 CNS
CAKI-1 renal = system: CAKI-1 renal
OVCAR-5 ovarian = system: OVCAR-5 ovarian
BT-549 breast = system: BT-549 breast
SR leukemia = system: SR leukemia
A498 renal = system: A498 renal
COLO 205 colon = system: COLO 205 colon
OVCAR-4 ovarian = system: OVCAR-4 ovarian
NCI-H226 lung = system: NCI-H226 lung
HT29 colon = system: HT29 colon
HOP-62 NSCLC = system: HOP-62 NSCLC
MDA-N = system: MDA-N
T-47D breast = system: T-47D breast
SN12C renal = system: SN12C renal
UO-31 renal = system: UO-31 renal
HCC-2998 colon = system: HCC-2998 colon
SF-539 CNS = system: SF-539 CNS
NCI-H460 lung = system: NCI-H460 lung
CCRF-CEM leukemia = system: CCRF-CEM leukemia

## CC(C)(C)OCC1NC(=O)[C@@H]2Cc3c([nH]c4ccccc34)C(C3CCCCC3)N2C1=O (stereo partly specified)
RXF 393 renal
  TGI: 38.4 µM
RPMI-8226 leukemia
  TGI: 49 µM
SNB-19 CNS
  TGI: > 100 µM
786-0 renal
  TGI: 50.2 µM
NCI-H23 lung
  TGI: 57.8 µM
PC-3 prostate
  TGI: 46.3 µM
HL-60(TB) leukemia
  TGI: 52.1 µM
OVCAR-3 ovarian
  TGI: 33.8 µM
SK-OV-3 ovarian
  TGI: > 100 µM
M14 melanoma
  TGI: 42 µM
EKVX NSCLC
  TGI: 67.9 µM
HCT-116 colon
  TGI: 30.5 µM
TK-10 renal
  TGI: 67.6 µM
MOLT-4 leukemia
  TGI: 49.6 µM
MDA-MB-231 breast
  TGI: 35.1 µM
SK-MEL-5 melanoma
  TGI: 29 µM
NCI-H522 lung
  TGI: 31.4 µM
SK-MEL-2 melanoma
  TGI: 40.8 µM
SW-620 colon
  TGI: 85.5 µM
MALME-3M melanoma
  TGI: 42.8 µM
A549 NSCLC
  TGI: > 100 µM
SF-268 CNS
  TGI: 95.6 µM
UACC-257 melanoma
  TGI: 41 µM
SF-295 CNS
  TGI: 40.8 µM
UACC-62 melanoma
  TGI: 31.2 µM
DU-145 prostate
  TGI: > 100 µM
HS 578T breast
  TGI: 51.8 µM
IGROV1 ovarian
  TGI: 57.7 µM
K-562 leukemia
  TGI: 61.6 µM
MDA-MB-435
  TGI: 35.7 µM
KM12 colon
  TGI: 44 µM
NCI/ADR-RES ovarian
  TGI: 57.5 µM
HCT-15 colon
  TGI: 69 µM
LOX IMVI melanoma
  TGI: 33.3 µM
OVCAR-8 ovarian
  TGI: 87.3 µM
ACHN renal
  TGI: 68.6 µM
SK-MEL-28 melanoma
  TGI: 77.6 µM
HOP-92 NSCLC
  TGI: 55.7 µM
MCF7 breast
  TGI: > 100 µM
U251 CNS
  TGI: 38.5 µM
CAKI-1 renal
  TGI: 53.8 µM
OVCAR-5 ovarian
  TGI: 50.8 µM
BT-549 breast
  TGI: 56.8 µM
SR leukemia
  TGI: 45.4 µM
A498 renal
  TGI: > 100 µM
COLO 205 colon
  TGI: 51.4 µM
OVCAR-4 ovarian
  TGI: > 100 µM
NCI-H226 lung
  TGI: 74.9 µM
HT29 colon
  TGI: 35.7 µM
HOP-62 NSCLC
  TGI: 39.6 µM
MDA-N
  TGI: 37.4 µM
T-47D breast
  TGI: 71.1 µM
SN12C renal
  TGI: 43.1 µM
UO-31 renal
  TGI: 98.8 µM

## COC(=O)c1c(O)ccc2c1c1c(n2CCc2ccccc2)C(=O)c2ccccc2C1=O
HCC-2998 colon
  TGI: 4.96 µM
RXF 393 renal
  TGI: 34.9 µM
SF-539 CNS
  TGI: 30.8 µM
RPMI-8226 leukemia
  TGI: 32.1 µM
SNB-19 CNS
  TGI: 32.8 µM
786-0 renal
  TGI: 31 µM
NCI-H23 lung
  TGI: 25.6 µM
PC-3 prostate
  TGI: 25.4 µM
HL-60(TB) leukemia
  TGI: 37.9 µM
OVCAR-3 ovarian
  TGI: 19.9 µM
NCI-H460 lung
  TGI: 18 µM
SK-OV-3 ovarian
  TGI: 32.3 µM
M14 melanoma
  TGI: 30.3 µM
EKVX NSCLC
  TGI: 36.5 µM
HCT-116 colon
  TGI: 23.3 µM
TK-10 renal
  TGI: 24.1 µM
MOLT-4 leukemia
  TGI: 17.3 µM
MDA-MB-231 breast
  TGI: 29.7 µM
SK-MEL-5 melanoma
  TGI: 25.3 µM
CCRF-CEM leukemia
  TGI: 50.8 µM
NCI-H522 lung
  TGI: 22.7 µM
SK-MEL-2 melanoma
  TGI: 29.8 µM
SW-620 colon
  TGI: 30.3 µM
MALME-3M melanoma
  TGI: 29.6 µM
A549 NSCLC
  TGI: 22.6 µM
SF-268 CNS
  TGI: 28.8 µM
UACC-257 melanoma
  TGI: 32.3 µM
SF-295 CNS
  TGI: 36.2 µM
DU-145 prostate
  TGI: 40.7 µM
HS 578T breast
  TGI: 36.4 µM
IGROV1 ovarian
  TGI: 24.9 µM
K-562 leukemia
  TGI: 25.8 µM
MDA-MB-435
  TGI: 20.6 µM
KM12 colon
  TGI: 26.4 µM
NCI/ADR-RES ovarian
  TGI: 23.6 µM
HCT-15 colon
  TGI: 24.9 µM
LOX IMVI melanoma
  TGI: 38.4 µM
OVCAR-8 ovarian
  TGI: 22.1 µM
ACHN renal
  TGI: 24.5 µM
SK-MEL-28 melanoma
  TGI: 30 µM
HOP-92 NSCLC
  TGI: 31.4 µM
MCF7 breast
  TGI: 30.2 µM
U251 CNS
  TGI: 26.8 µM
CAKI-1 renal
  TGI: 27.5 µM
OVCAR-5 ovarian
  TGI: 37.7 µM
BT-549 breast
  TGI: 29.6 µM
SR leukemia
  TGI: 22.7 µM
A498 renal
  TGI: 31.5 µM
COLO 205 colon
  TGI: 3.24 µM
OVCAR-4 ovarian
  TGI: 20.7 µM
NCI-H226 lung
  TGI: 34.1 µM
HT29 colon
  TGI: 27.1 µM
HOP-62 NSCLC
  TGI: 36.6 µM
MDA-N
  TGI: 24.8 µM
T-47D breast
  TGI: 20.8 µM
SN12C renal
  TGI: 24.9 µM
UO-31 renal
  TGI: 23.1 µM

## O=C(NNc1cn[nH]c(=O)n1)c1cccc2nc3ccccc3nc12
HCC-2998 colon
  TGI: > 100 µM
RXF 393 renal
  TGI: 56.8 µM
SF-539 CNS
  TGI: > 100 µM
RPMI-8226 leukemia
  TGI: > 100 µM
SNB-19 CNS
  TGI: > 100 µM
786-0 renal
  TGI: > 100 µM
NCI-H23 lung
  TGI: > 100 µM
PC-3 prostate
  TGI: > 100 µM
HL-60(TB) leukemia
  TGI: > 100 µM
OVCAR-3 ovarian
  TGI: > 100 µM
NCI-H460 lung
  TGI: > 100 µM
SK-OV-3 ovarian
  TGI: > 100 µM
M14 melanoma
  TGI: > 100 µM
EKVX NSCLC
  TGI: > 100 µM
HCT-116 colon
  TGI: > 100 µM
TK-10 renal
  TGI: 67 µM
MOLT-4 leukemia
  TGI: 27.9 µM
MDA-MB-231 breast
  TGI: 84.3 µM
SK-MEL-5 melanoma
  TGI: > 100 µM
CCRF-CEM leukemia
  TGI: > 100 µM
SK-MEL-2 melanoma
  TGI: > 100 µM
SW-620 colon
  TGI: > 100 µM
MALME-3M melanoma
  TGI: > 100 µM
A549 NSCLC
  TGI: > 100 µM
SF-268 CNS
  TGI: > 100 µM
UACC-257 melanoma
  TGI: > 100 µM
SF-295 CNS
  TGI: > 100 µM
UACC-62 melanoma
  TGI: > 100 µM
DU-145 prostate
  TGI: > 100 µM
HS 578T breast
  TGI: > 100 µM
IGROV1 ovarian
  TGI: > 100 µM
K-562 leukemia
  TGI: > 100 µM
MDA-MB-435
  TGI: > 100 µM
KM12 colon
  TGI: > 100 µM
NCI/ADR-RES ovarian
  TGI: > 100 µM
HCT-15 colon
  TGI: > 100 µM
LOX IMVI melanoma
  TGI: > 100 µM
OVCAR-8 ovarian
  TGI: > 100 µM
ACHN renal
  TGI: 60.1 µM
SK-MEL-28 melanoma
  TGI: > 100 µM
HOP-92 NSCLC
  TGI: > 100 µM
MCF7 breast
  TGI: > 100 µM
U251 CNS
  TGI: > 100 µM
CAKI-1 renal
  TGI: > 100 µM
OVCAR-5 ovarian
  TGI: > 100 µM
BT-549 breast
  TGI: > 100 µM
SR leukemia
  TGI: 26.5 µM
A498 renal
  TGI: > 100 µM
COLO 205 colon
  TGI: > 100 µM
OVCAR-4 ovarian
  TGI: > 100 µM
NCI-H226 lung
  TGI: > 100 µM
HT29 colon
  TGI: > 100 µM
MDA-N
  TGI: > 100 µM
T-47D breast
  TGI: > 100 µM
SN12C renal
  TGI: > 100 µM
